Measured values from patent US7531555B2, “Compositions and methods for selective inhibition of nicotine acetylcholine receptors” (University of Florida Research Foundation, Inc., priority 2003, dated 2009).

Tested on: mice
Test: Tail-flick test, blockade of nicotine-induced antinociception
Format: in vivo
Protocol: Animals. Male ICR mice (20-25 g) obtained from Harlan Laboratories (Indianapolis, Ind.) were used throughout the study. Animals were housed in groups of six and had free access to food and water. Adult, male Long-Evans rats (350-460 g), obtained from Harlan (Dublin, Va.), were individually housed in a temperature-controlled (20-22° C.) environment with a 12-hour light-dark cycle (lights on at 7 a.m.). Rats were maintained within the indicated weight range by restricted post-session feeding and had ad libitum water in their home cages. Rats were drug-naive at the beginning of the study. Animals were housed in an AALAC approved facility and the study was approved by the Institutional Animal Care and Use Committee of Virginia Commonwealth University.
1. Tail-flick test. Antinociception was assessed by the tail-flick method of D'Amour and Smith (D'Amour and Smith J. P. E. T., 1941, 72:74-79) as modified by Dewey et al. (Dewey et al. J Pharmacol Exp Ther, 1970, 175:435-442). Briefly, mice were lightly restrained while a radiant heat source was shone onto the upper portion of the tail. Latency to remove the tail from the heat source was recorded for each animal. A control response (2-4 seconds) was determined for each mouse before treatment, and a test latency was determined after drug administration. In order to minimize tissue damage, a maximum latency of 10 seconds was imposed. Antinociceptive response was calculated as percent maximum possible effect (% MPE), where % MPE=[(test-control)/(10-control)]×100.
2. Hot-plate Test. […] Two control latencies at least 10 minutes apart were determined for each mouse. […] Antinociceptive response was calculated as percent maximum possible effect (% MPE), where % MPE=[(test-control)/(40-control)×100]. The reaction time was scored when the animal jumped or licked its paws. […]
The doses of nicotine used in the different tests represent approximately an ED84 (Effective dose 84%) which were determined from previous works (Damaj et al. Psychopharmacology (Berl), 1995, 117:67-73). […]

## CCCCCCC(=O)OC1CC(C)(C)NC(C)(C)C1 [TMPH, 2,2,6,6-tetramethylpiperidin-4-yl heptanoate]
TMPH 5 mg/kg s.c., still significantly different from control
  duration of TMPH effect, tail-flick: at least 4 hours
Pretreatment with TMPH 5 mg/kg
  time at which nicotine's effect started to recover, tail-flick: ≤ 60 min
s.c. injection, at the indicated doses and times
  antinociception by TMPH itself, tail-flick: did not cause antinociception
